≈ marks a conversion by molar mass, not a printed value.
What was measured:
Assay type in all cases: cell-based
[1] = system: MCF-7 human breast cancer cells; assay: Crystal violet cell growth assay; settings: MCF7, MCF-7 cells, 72 hours, read-out: Cr. Violet (IC50)
Procedure: The crystal violet assay measures cell growth but not cytotoxicity. This assay employs crystal violet staining of fixed cells in 96-well plates with subsequent solubilization and measurement of OD490 on a spectrophotometer. The OD490 corresponds to cell growth per unit time measured. Cells are treated with the compounds of interest or vehicle controls and IC50 for each compound is computed.
To measure the cytotoxicity of specific compounds against cancer cells, 5×10^4 MCF-7 human breast cancer cells, obtained from the American Type Culture Collection are plated per well in 24 well plates in DMEM medium with 10% fetal bovine serum, penicillin, and streptomycin. Following overnight culture at 37° C. and 5% CO2, the compounds to be tested, dissolved in DMSO, are added to the wells in 1 μl volume at the following concentrations: 50, 40, 30, 20, and 10 μg/ml in triplicate. Additional concentrations are tested if required. 1 μl of DMSO is added to triplicate wells are the vehicle control. C75 is run at 10, and 5 μg/ml in triplicate as positive controls.
After 72 hours of incubation, cells are stained with 0.5 ml of Crystal Violet stain (0.5% in 25% methanol) in each well. After 10 minutes, wells are rinsed, air dried, and then solubilized with 0.5 ml 10% sodium dodecylsulfate with shaking for 2 hours. Following transfer of 100 μl from each well to a 96-well plate, plates are read at OD490 on a Molecular Devices SpectraMax Plus Spectrophotometer Average OD490 values are computed using SOFTmax Pro Software (Molecular Devices) and IC50 values are determined by linear regression analysis using Prism version 3.02 (Graph Pad Software, San Diego).

[2] = system: MCF-7 human breast cancer cells; assay: XTT cytotoxicity assay (M / MCF7); settings: MCF-7 cells, 72 hours
Procedure: The XTT assay is a non-radioactive alternative for the [^51Cr] release cytotoxicity assay. XTT is a tetrazolium salt that is reduced to a formazan dye only by metabolically active, viable cells. The reduction of XTT is measured spectrophotometrically as OD490-OD650. To measure the cytotoxicity of specific compounds against cancer cells, 9×10^3 MCF-7 human breast cancer cells, obtained from the American Type Culture Collection are plated per well in 96 well plates in DMEM medium with 10% fetal bovine serum, insulin, penicillin, and streptomycin. Following overnight culture at 37° C. and 5% CO2, the compounds to be tested, dissolved in DMSO, are added to the wells in 1 μl volume at the following concentrations: 80, 40, 20, 10, 5, 2.5, 1.25, and 0.625 μg/ml in triplicate. Additional concentrations are tested if required. 1 μl of DMSO is added to triplicate wells are the vehicle control. C75 is run at 40, 20, […], and 5 μg/ml in triplicate as positive controls. After 72 hours of incubation, cells are incubated for 4 hours with the XTT reagent as per manufacturer's instructions (Cell Proliferation Kit 11 (XTT) Roche). Plates are read at OD490 and OD650 on a Molecular Devices SpectraMax Plus Spectrophotometer. Three wells containing the XTT reagent without cells serve as the plate blank. XTT data are reported as OD490-OD650. Averages and standard error of the mean are computed using SOFTmax Pro software ([…]). The IC50 for the compounds is defined as the concentration of drug leading to a 50% reduction in OD490-OD650 compared to controls. The OD490-OD650 are computed by the SOFTmax PRO software (Molecular Devices) for each compound concentration. IC50 is calculated by linear regression, plotting the FAS activity as percent of control versus drug concentrations. Linear regression, best-fit line, r^2, and 95% confidence intervals are determined using Prism Version 3.0 (Graph Pad Software).

[3] = system: fatty acid synthesis pathway activity in MCF-7 human breast cancer cells; assay: [14C]acetate incorporation into total lipids; settings: MCF-7 cells, [14C]acetate into lipids; for IC50: Homo sapiens, MCF7
Procedure: This assay measures the incorporation of [^14C]acetate into total lipids and is a measure of fatty acid synthesis pathway activity in vitro. It is utilized to measure inhibition of fatty acid synthesis in vitro.
MCF-7 human breast cancer cells cultured as above, are plated at 5×10^4 cells per well in 24-well plates. Following overnight incubation, the compounds to be tested, solubilized in DMSO, are added at 5, 10, and 20 μg/ml in triplicate, with lower concentrations tested if necessary. DMSO is added to triplicate wells for a vehicle control. C75 is run at 5 and 10 μg/ml in triplicate as positive controls. After 4 hours of incubation, 0.25 μCi of [^14C]acetate (10 μl volume) is added to each well.
After 2 hours of additional incubation, medium is aspirated from the wells and 800 μl of chloroform:methanol (2:1) and 700 μl of 4 mM MgCl2 is added to each well. Contents of each well are transferred to 1.5 Eppendorf tubes, and spun at full-speed for 2 minutes in a high-speed Eppendorf Microcentrifuge 5415D. After removal of the aqueous (upper) layer, an additional 700 μl of chloroform:methanol (2:1) and 500 μl of 4 mM MgCl2 are added to each tube and then centrifuged for 1 minutes as above. The aqueous layer is removed with a Pasteur pipette and discarded. An additional 400 μl of chloroform:methanol (2:1) and 200 μl of 4 mM MgCl2 are added to each tube, then centrifuged and aqueous layer is discarded. The lower (organic) phase is transferred into a scintillation vial and dried at 40° C. under N2 gas. Once dried, 3 ml of scintillant (APB #NBC5104) is added and vials are counted for ^14C. The Beckman Scintillation counter calculates the average cpm values for triplicates.
The IC50 for the compounds is defined as the concentration of drug leading to a 50% reduction in [^14C]acetate incorporation into lipids compared to controls. This is determined by plotting the average cpm for each inhibitor concentration tested, performing linear regression and computing the best-fit line, r^2 values, and 95% confidence intervals. The average cpm values are computed by the Beckman scintillation counter (Model LS6500) for each compound concentration. Computation of linear regression, best-fit line, r^2, and 95% confidence intervals are calculated using Prism Version 3.0 (Graph Pad Software).

| SMILES | IC50 [1] | IC50 [2] | IC50 [3] | 14C (IC50) [3] |
| --- | --- | --- | --- | --- |
| CCCCCCCCNC(=O)c1cc(O)cs1 | 8.5 ± 2.1 µg/mL (≈ 33.3 µM) | 9.9 µg/mL (≈ 38.8 µM) | 17.6 ± 1.9 µg/mL (≈ 68.9 µM) | – |
| CCCCCCCCNC(=O)c1cc(O)c(C(=O)OC)s1 | 38.8 µg/mL (≈ 124 µM) | 47.5 µg/mL (≈ 152 µM) | 20.5 µg/mL (≈ 65.4 µM) | – |
| COC(=O)c1sc(C(=O)NNc2ccc(Cl)cc2)cc1O | 18.1 ± 4.4 µg/mL (≈ 55.4 µM) | > 80 µg/mL | 25.2 µg/mL (≈ 77.1 µM) | – |
| C=CCNC(=O)c1cc(O)c(C(=O)OC)s1 | > 80 µg/mL | > 80 µg/mL | – | Neg |
| COC(=O)c1sc(C(=O)O)cc1O | > 80 µg/mL | > 80 µg/mL | 55.2 µg/mL (≈ 273 µM) | – |
| CCCCCCCCNNC(=O)c1cc(O)c(C(=O)OC)s1 | 31.7 µg/mL (≈ 96.5 µM) | 73.3 µg/mL (≈ 223 µM) | 41.2 µg/mL (≈ 125 µM) | – |

From patent publication US20100029752A1, “NOVEL COMPOUNDS, PHARMACEUTICAL COMPOSITIONS CONTAINING SAME, AND METHODS OF USE FOR SAME” (priority 2005, published 2010)
